Test results published in patent publication US20240400604A1, “NUCLEOSIDE TRIPHOSPHATE PHOTOAFFINITY PROBE, METHOD FOR PREPARING SAME, AND APPLICATIONS THEREOF” (SHANDONG UNIVERSITY, priority 2023, published 2024).
One block for each compound: values may come before it.

Legend:
[1] = Stability analysis of the probes under three pH conditions with HPLC; format: physicochemical; conditions: acidic condition with trifluoroacetic acid (pH=3), 0.4 mM probe, 37° C.
Description: Probes were incubated with 0.4 mM final concentration in different buffer at 37° C. for different time, and 10 μL of solution was taken out at each time point for HPLC analysis. A analytical column (Welch, Ultimate XB-C18, 5 μm, 4.6×250 mm) was used for the analysis, and untreated probes were used as controls. The mobile phase A was 50 mM […] (TEAA) buffer (pH=8), the mobile phase B was 50 mM TEAA in 30% ACN, the flow rate was 1 mL/min, the detection wavelength was 252 nm, and the column temperature was 30° C. Gradient elution conditions were as follows: 0-5 minutes, 5% B; 5-10 minutes, 5-30% B; 10-30 minutes, 30-40% B; 30-35 minutes, 40-100% B; 35-40 minutes, 100% B; 45-50 minutes, 5% B.

[2] = tested on: GTP-binding proteins in HEK 293T cell lysates; assay: Proteomic LC-MS/MS analysis of HEK 293T cell lysate labeled with GTP probes; parameters: species or system human
Description: Under optimized conditions, HEK 293T cell lysates were labeled using the GTP photoaffinity probes. Peptide samples were prepared via the On-Beads enzymatic digestion method for proteomic study. Approximately 1 mg of proteins was labeled with 0.1 mM GTP probe and irradiated with 365-nm UV light for 30 min. To the solution were added freshly prepared tris-(2-carboxyethyl)phosphine (TCEP) until its concentration reached 1 mM, and a CuAAC reaction mixture to reach a final concentration of 1 mM CuSO4, 0.1 mM tris[(1-benzyl-1H-1,2,3-triazol-4-yl)methyl]amine (TBTA), and 0.5 mM biotin-PEG3-azide (for GTP-O probe labeled samples), or 0.5 mM biotin-DADPS-azide (for GTP-N probe labeled samples). The mixture was vortexed at room temperature for 2 hours and then precipitated in ice-cold methanol overnight.
The precipitated proteins were dissolved in 100 μL 4% SDS buffer (4% SDS, 150 mM NaCl, 50 mM HEPES, pH=7.4), and diluted with 900 μL SDS-free HEPES buffer (150 mM NaCl, 50 mM HEPES, pH=7.4). High-capacity streptavidin beads (50 μL per sample) were washed three times with 20 times volume of wash buffer (150 mM sodium chloride, 50 mM HEPES, pH=7.4) before adding to the samples. After incubation on a rotary shaker at room temperature for 2 hours, non-specifically bound proteins were washed away in a centrifugal filtration column using 1× PBS containing 1% SDS, 10× PBS, 1× PBS, water, and 50 mM ammonium bicarbonate solution with 8 M urea, each wash using 1 mL of solution for five times. The beads were transferred to a centrifuge tube using 50 mM ammonium bicarbonate solution containing 8 M urea and resuspended with 500 μL of this solution. The disulfide bonds were reduced by adding 20 mM TCEP and incubating at 37° C. for 1 hour, and then alkylated with 50 mM iodacetamide at room temperature in the dark for 30 minutes. After centrifugation at 3000 rpm for 2 minutes, the supernatant was gently removed. The beads were washed with 25 mM ammonium bicarbonate three times, resuspended in 100 μL 25 mM ammonium bicarbonate, and incubated with 1 μg of MS-grade trypsin (1 μg/μL) at 37° C. for 18 hrs.
The beads were washed with 200 μL of 25 mM ammonium bicarbonate solution, then centrifuged at 12000 rpm for 2 minutes to collect the supernatant. The procedure was repeated 6 times, and the supernatants were combined to obtain sample 1 (peptides without probe modification). For GTP-O probe labeled samples, the beads were resuspended in 200 μL of 70% acetonitrile solution containing 1% trifluoroacetic acid, vortexed for 5 minutes, then centrifuged at 12000 rpm for 2 minutes to collect the supernatant. The procedure was repeated 5 times, and the supernatants were combined to obtain sample 2 (containing probe-modified peptides). For GTP-N probe labeled samples, the beads were resuspended in 100 μL of 10% formic acid, incubated on a rotary shaker at room temperature for 30 minutes, then centrifuged at 12000 rpm for 2 minutes to collect the supernatant. The procedure was repeated 3 times, and the supernatants were combined. Trifluoroacetic acid was added to a final concentration of 1%, and incubated at 37° C. for 30 minutes to obtain sample 2. The peptide solutions were dried with a centrifugal concentrator and desalted using C18 tips, then frozen at −80° C. until LC-MS/MS detection. Samples were dissolved in 20 μL of pure water, 4 μL of sample 1 and 8 μL of sample 2 were injected for analysis.
An EASY-nLC 1200 liquid chromatography coupled with a Q-Exactive Orbitrap mass spectrometer was employed for LC-MS/MS analysis. A homemade C18 capillary column (inner diameter 75 μm, column length 18 cm) packed with Reprosil-Pur120 C18-AQ (Dr. maisch, particle size […]) was utilized as the separation column. The precolumn (inner diameter 150 μm, column length 4 cm) was packed with Reprosil-Pur120 C18-AQ (Dr. maisch, particle size 5 μm,). The mobile phase A was 0.1% formic acid, while mobile phase B was 0.1% formic acid in 80% acetonitrile, and the flow rate was 300 nL/min. […]

[3] = tested on: GTP-binding proteins in HEK 293T cell lysates; assay: In-gel fluorescence imaging of HEK 293T cell lysate labeled with the GTP probes
Description: Appropriate amount cells were incubated on ice for 30 min in 1% lysis buffer (1% Triton X-100, 50 mM HEPES (pH 7.4), 150 mM NaCl, supplemented with phosphatase inhibitor A, phosphatase inhibitor B, and protease inhibitor right before use) at 5-10 times the cell volume. Vortexing for 5 seconds every 10 minutes. The cell lysates were centrifuged at 12,000 rpm at 4° C. for 30 min, and the supernatants were passed through an Amersham NAP-5 column to remove endogenous nucleosides. The proteins were quantified using a Bradford protein assay kit. Approximately 100 μg protein was diluted with 0.1% lysis buffer (0.1% Triton X-100, 50 mM HEPES, 150 mM sodium chloride). To the solution was added 1 mM magnesium chloride, the GTP probe and competitors to designated concentrations. The final volume for the reaction was 100 μL and the final protein concentration was […]. After incubated on ice, the solution was irradiated with 365-nm UV light for 30 min. To the solution were added freshly prepared tris-(2-carboxyethyl)phosphine (TCEP) until its concentration reached 1 mM, and a CuAAC reaction mixture to reach a final concentration of 1 mM CuSO4, 0.1 mM tris[(1-benzyl-1H-1,2,3-triazol-4-yl)methyl]amine (TBTA), and 0.1 mM rhodamine β-PEG3-azide. The mixture was incubated at room temperature for 2 hrs and then precipitated in a solution of chloroform: methanol: water (4:3:1, v/v). After washing with cold methanol and air dried, the protein pellet was dissolved in 30 μL 4% SDS buffer (4% SDS, 50 mM HEPES (pH 7.4), 150 mM NaCl, 50 mM Trolamine). The protein concentration was determined using a BCA protein assay kit. A solution of approximately 20 μg proteins was added 4×loading buffer (0.25M Trometamol, pH=6.8, 4% SDS, 40% Glycerol, 0.02% bromophenol blue, add 200 μL 2-Mercaptoethanol to 800 μL buffer right before use), boiled at 95° C. for 5 min and loaded onto an SDS-PAGE gel (4% stacking gel, 10% separating gel). Then perform SDS-PAGE separation at a constant voltage of 90 V for about 110 minutes. At the end of electrophoresis, cut the separation gel and imaged with an Amersham Imager 600 (GE Healthcare) at 520 nm. The gel was then stained with Coomassie Brilliant Blue staining solution (0.1% Coomassie brilliant blue, 10% acetic acid, 50% methanol) for 30 min and destained with destaining solution (10% acetic acid, 30% methanol) to remove background color.

[4] = tested on: ATP-binding proteins in HEK 293T cell lysates; assay: In-gel fluorescence imaging of HEK 293T cell lysates labeled with the ATP-N probe; conditions: FIG. 23a, in-gel fluorescence
[5] = tested on: ATP-binding proteins in HEK 293T cell lysates; assay: Proteomic LC-MS/MS (LFQ) analysis of HEK 293T cell lysates labeled with the ATP-N probe, ATP competition; parameters: species or system human
Description: (§1) 1 mg of cell lysate was labeled with 10 μM ATP-N probe. The subsequent steps were the same as in Section 1.3 of Example 3.
(§2) The C18 pre-column (Thermo Fisher, 164564-CMD, 100 μm×2 cm) and analytical column (Thermo Fisher, 164941, 75 μm×25 cm) used in the LC-MS/MS analysis were commercially available. The liquid chromatography (Vanquish Neo, Thermo Fisher) settings were as follows: Solvent A was 98% H2O with 0.1% FA, and Solvent B was 98% ACN with 0.1% FA. The flow rate was 300 nL/min, with the elution gradient as follows: 0 minutes, 2% B; 5 minutes, 26% B; 127 minutes, 36% B; 137 minutes, 72% B; 142 minutes, 80% B; and 143-153 minutes, 80% B. The mass spectrometer (Orbitrap Exploris 480, Thermo Fisher) settings were: full MS scan in positive ion mode, electrospray ion source voltage 1.9 kV, ion transfer tube temperature 320° C., scan m/z range 350-1500, resolution of 120000, AGC target 300%, maximum injection time 25 ms. For dd-MS^2, resolution was 15000, AGC target 50%, maximum injection time was automatically selected, and the cycle time for MS scanning was set to 3 s. DDA mode was used for data acquisition and the data collection time was 0-142 minutes.
The obtained MS raw files were analyzed using Proteome Discoverer 2.5 software, and searched against the Uniprot human protein database (as of November 2022, total proteins: 20401). Enzyme specificity was set to trypsin, cysteine carbamidomethylation was set as a fixed modification, and methionine oxidation and N-terminal acetylation were set as variable modifications.
HEK 293T cell lysates were labeled with 10 μM ATP-N probe. Labeled proteins were enriched with streptavidin beads, and digested with trypsin to prepare peptide samples for LC-MS/MS analysis. Adding 100 μM ATP as the competitor during probe labeling, the labeling of ATP-binding proteins would be interfered. Compared with the probe-labeling group without competitors, more specific ATP-binding proteins could be identified with label-free quantitative (LFQ) analysis.

VRK1 = molecular target: T1, VRK1 (Homo sapiens, UniProt Q99986); assay: Identification of ATP-N probe-modified site by LC-MS/MS; conditions: close to ATP-binding pocket, FIG. 26b
T1 construct: in the samples of HEK 293T cell lysates labeled with the ATP-N probe; endogenous in cells; host or cells: HEK 293T cell lysate
T1 sequence (Q99986 1-396): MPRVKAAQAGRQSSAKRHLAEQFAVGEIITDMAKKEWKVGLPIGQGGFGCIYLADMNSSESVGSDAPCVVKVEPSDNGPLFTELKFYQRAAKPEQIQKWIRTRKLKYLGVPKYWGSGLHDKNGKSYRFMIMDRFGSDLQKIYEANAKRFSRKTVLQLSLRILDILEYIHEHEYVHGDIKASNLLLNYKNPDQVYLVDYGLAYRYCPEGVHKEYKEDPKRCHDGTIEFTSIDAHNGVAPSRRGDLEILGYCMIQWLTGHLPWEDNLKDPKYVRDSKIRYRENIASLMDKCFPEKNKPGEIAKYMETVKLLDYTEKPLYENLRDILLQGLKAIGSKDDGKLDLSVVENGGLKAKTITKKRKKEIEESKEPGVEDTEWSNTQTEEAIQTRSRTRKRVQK
Description: as §1, §2
(§3) The obtained MS raw files were analyzed using Proteome Discoverer 2.5 software, and searched against the Uniprot human protein database (as of November 2022, total proteins: 20401). […]

[6] = molecular target: T2, N-acetylglucosamine kinase (NAGK) (Homo sapiens, UniProt Q9UJ70); assay: as above; conditions: near ATP-binding pocket, FIG. 26a
T2 construct: in the samples of HEK 293T cell lysates labeled with the ATP-N probe; endogenous in cells; host or cells: HEK 293T cell lysate
T2 sequence (Q9UJ70 whole entry): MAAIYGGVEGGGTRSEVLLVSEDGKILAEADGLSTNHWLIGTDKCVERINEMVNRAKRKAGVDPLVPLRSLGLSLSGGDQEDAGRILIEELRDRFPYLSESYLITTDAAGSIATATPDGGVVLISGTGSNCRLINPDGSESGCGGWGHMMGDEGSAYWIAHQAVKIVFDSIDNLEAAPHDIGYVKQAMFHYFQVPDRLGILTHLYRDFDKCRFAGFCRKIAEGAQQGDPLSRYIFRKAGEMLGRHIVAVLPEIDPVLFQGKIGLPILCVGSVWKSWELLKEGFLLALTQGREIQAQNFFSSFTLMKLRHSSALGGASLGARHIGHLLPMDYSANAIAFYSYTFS
Description: as §1, §2, §3

[7] = tested on: ATP-binding proteins, including kinases; assay: Staurosporine competitive ATP-N probe labeling of cell lysates, LC-MS/MS; parameters: species or system human; conditions: staurosporine at 1×, 10×, 20× concentration of the ATP-N probe; one biological replicate
Description: The preparation of mass spectrometry samples was the same as in Section 1.3 of Example 7, except that ATP was replaced with different concentrations of staurosporine.
Prior to probe labeling, cell lysates were pre-incubated on ice with staurosporine at 1×, 10×, and 20× concentration of the ATP-N probe, and compared with the control group without staurosporine treatment. Potential target proteins of kinase inhibitors were screened based on the abundance ratio between the competition group and the control group through LC-MS/MS analysis. Theoretically, as the concentration of the inhibitor increases, the labeling efficiency of its target proteins should gradually decrease. Therefore, proteins were screened based on their abundance ratios ([…]), identifying proteins whose detected abundance decreased with increasing inhibitor concentrations. Proteins with lower confidence were filtered out, leaving proteins that met the criteria for further analysis. Most proteins with reduced labeling efficiency after staurosporine treatment were ATP-binding proteins, including kinases, and this trend increased with higher inhibitor concentrations. […] Since the data presented in this example represent only one biological replicate, there may be some errors. Typically, using the average values and p-values from three biological replicates would yield more reliable results.

[8] = three biological replicates, 0.1 mM probe, control probe = GTP-ctrl probe
[9] = GO-MF analysis of screened proteins

time after which probe decomposed [1]: 0.5 h
Structure (SMILES): C#CCCC1(CCNP(=O)(O)OP(=O)(O)OP(=O)(O)OC[C@H]2O[C@@H](n3cnc4c(=O)[nH]c(N)nc43)C(O)[C@H]2O)N=N1 (stereo partly shown) [GTP-N probe]
probe-modified sites on labeled proteins ([2]; LC-MS/MS of sample 2 (probe-modified peptides)): several modified peptides of GTP-binding proteins were identified
selectivity for annotated GTP-binding proteins ([2]; competition with GTP at 10 times probe concentration, LFQ, three biological replicates): better selectivity than the GTP-O probe
GTP-binding proteins identified [2, 8]: 115
total proteins identified [2, 8]: 2461
protein labeling (in-gel fluorescence) ([3]; 0.1 mM probe, 1 mM MgCl2, FIG. 10a): stronger protein labeling compared to the GTP-O probe
probe concentration at which cell lysate is effectively labeled ([3]; FIG. 9a (GTP-N probe), 365 nm UV, in-gel fluorescence): 50 µM

Structure (SMILES): C#CCCC1(CCNP(=O)(O)OP(=O)(O)OP(=O)(O)OC[C@H]2O[C@@H](n3cnc4c(N)ncnc43)C(O)[C@H]2O)N=N1 (stereo partly shown) [ATP-N probe]
lowest probe concentration showing clear fluorescent bands [4]: 1 µM
proteins with significantly decreased intensity in the ATP competition group ([5]; 10 μM probe, 100 μM ATP, all three replicates, ratio>2, p-value<0.05): More than 160
of these, kinases [5, 9]: around 78
of these, previously annotated ATP-binding proteins [5, 9]: approximately 129
share of annotated ATP-binding proteins among all screened proteins [5, 9]: over 80%
proteins with significantly decreased intensity in the competition group, probe-modified peptides ([5]; quantitative analysis of probe-modified peptides, all three replicates, ratio>2, p-value<0.05): About 44
probe-labeled residue (VRK1): Glu73
probe-modified residue [6]: Glu16

Structure (SMILES): CN[C@@H]1C[C@H]2O[C@@](C)([C@@H]1OC)n1c3ccccc3c3c4c(c5c6ccccc6n2c5c31)C(=O)NC4 [staurosporine, Staurosporine]
proteins with significantly reduced ATP-N probe labeling in the competition group [7]: several known staurosporine targets were identified
